Reference: patent publication US12663426B2, “Method and composition for measurement of nitric oxide” (The University of Chicago, priority 2019, dated 2026)

Legend:
NOS3 = molecular target: T1, NOS3 (Homo sapiens, UniProt P29474); test: Steady state NOS3 activity imaging at plasma membrane and TGN with NOckout probes; type: cell-based; settings: T-47D cells
T1 construct: endogenous, basal NOS3 activity was estimated at each of these sub-cellular locations in T-47D cells; endogenous in cells; host or cells: T-47D cells
Description: Image acquisition. T-47D cells were maintained as mentioned above in the cell culture section. Cells were washed twice with Hank's balanced salt solution (HBSS) before incubating them with 500 nM NOckout^TGN for 30 min or 500 nM NOckout^PM for 10 min at 37° C. followed by 3 washes with HBSS solution to remove any unloaded sensors. For steady state imaging (FIG. 1), cells were treated with indicated agonists or antagonists for 1 hr in complete RPMI-1640 medium. Care was taken not to exceed the final concentration of DMSO>1% at any time of the experiment. Additionally, 1% DMSO was used as a negative control in untreated (Basal) cells. […] The cells are then washed and imaged (FIG. 1f).
For simultaneous imaging cells were treated with 500 nM NOckout^TGN for 30 min where last 10 min cells were co-incubated with 500 nM NOckout^PM. In order to achieve lowest signal (PTIO, FIG. 1e-f) or to achieve bleaching profile (PTIO, FIG. 3e) cells were pre-treated with 500 μM PTIO for 15 minutes. Images were captured on a Laser scanning confocal Leica SP8 microscope using 63×, 1.4UV NA objective. Desired excitation and emission wavelengths was achieved using white light laser along with notch filters and acousto-optical tunable filters. A488, DAR and A647 were imaged using the following settings—Alexa488 (λex=488 nm, λem=500 nm to 540 nm), DAR (λex=554 nm, λem=565 nm to 610 nm) and Alexa647 (λex=647 nm, λem=665 nm to 710 nm).
Image analysis was performed using Fiji (Schindelin, J. et al. Fiji: an open-source platform for biological-image analysis. Nat Methods 9, 676-682 (2012)). Auto-fluorescence was subtracted from images for ratiometric analysis. For representation, images were further processed by smooth and despeckle functions. In order to present G/B or G/R images, a mask for each image was constructed using Otsu thresholding method, and mask-multiplied images were used for division. The ROI plugin in Fiji was used to select either TGN (Alexa647 channel) or PM (Alexa488 channel) and these ROIs were recalled in DAR channel to measure intensity in all three channels.
Next, endogenous, basal NOS3 activity was estimated at each of these sub-cellular locations in T-47D cells without explicitly activating NOS3. To do this, the ratiometric NOckout^PM response, i.e. the G/B ratio, was first measured under conditions where cells were depleted of NO using the NO scavenger 2-phenyl-4,4,5,5-tetramethylimidazoline-1-oxyl 3-oxide (PTIO, 300 μM) (Goldstein, S., Russo, A. & Samuni, A. Reactions of PTIO and carboxy-PTIO with *NO, *NO2, and O2−*. J Biol. Chem. 278, 50949-50955 (2003)). […] These two extreme cases provide the minimum and maximum G/B signals afforded by NOckout^PM in the cell (FIG. 1e-f). The G/B values under any subsequent condition are normalized to the maximum G/B signal. […]

[1] = tested on: S-nitrosylation at the Golgi; test: Anti-S-nitrosocysteine immunostaining of T-47D cells; type: cell-based
Description: (§1) Immunofluorescence staining. Cells were cultured on a glass bottom 3.5 cm imaging dish to reach 60% confluency. […] Treated cells were then washed three times with 1× PBS (pH 7.4) and fixed using, 4% paraformaldehyde at room temperature (RT, 15 min). Subsequently, cells were permeabilized using 0.25% triton X-100 followed by blocking using 3% BSA in 1× PBS. Cells were then incubated with indicated primary antibodies—mouse monoclonal anti-eNOS antibody (SantaCruz Cat #sc-376751), Polyclonal Anti-S-nitrosocysteine antibody (Abeam Cat #ab94930 or Abeam Cat #ab50185), Rabbit polyclonal Anti-Giantin antibody (Abeam Cat #ab24586) or Mouse monoclonal Anti-GM130 antibody (BD Biosciences Cat #610822) in blocking buffer (3% BSA in 1× 4 PBS) for 1 hour at RT. Cells were then washed for 5 min with 1× PBS (3×). Respective secondary antibodies conjugated with either Alexafluor 488 or Alexafluor 647 were added to the cells and incubated for 1 hr at RT. Cells were washed again to remove excess secondary antibody using 1× PBS for 5 min (3×). Hoechst 33342 (5 μM) was added 10 min prior to imaging to stain nuclear DNA. Cells were then imaged on a Leica SP8 laser scanning confocal microscope using excitation wavelengths 405 nm (Hoechst), 488 nm (AlexaFluor 488) and 647 nm (AlexaFluor 647). Images were processed using Fiji and maximum z-projection of 2-3 z-planes are used in representative images.
In order to address the significance of the […] population of NOS3 at the TGN, T-47D cells were immunostained using an antibody specific to S-nitrosocysteine.
Similar observations were made in MCF-7 cells upon NO depletion (FIG. 23). These studies reveal that the Golgi is a cellular hot-spot for 5-nitrosylation of proteins by NOS3, where it is essential for the maintenance of Golgi architecture in breast cancer cells. […] In addition to Golgi fragmentation, NO scavenging also hampered cell growth by inducing cell sensescence (FIG. 24).

T-47D cells = test: Golgi fragmentation (Giantin/GM130 immunofluorescence); type: cell-based
Description: as §1
Golgi fragmentation was quantified with immunofluorescence images of Golgi structural protein Giantin. Merge images of Hoechst and Giantin allowed identification of cell numbers and enumeration of Golgi fragments per cell (≤3 Golgi fragments per cell was considered intact Golgi) (Lee, J. E. et al. Dependence of Golgi apparatus integrity on nitric oxide in vascular cells: implications in pulmonary arterial hypertension. Am. J. Physiol. Heart Circ. Physiol. 300, H1141-58 (2011)). […]
Small molecule inhibitors were then screened to identify the molecular pathway by which NOS3 inhibition induces Golgi fragmentation. This is based on the rationale that inhibiting a protein on this pathway should also block methylene blue-induced Golgi fragmentation. […] A range of small molecule inhibitors against kinases that have previously ascribed roles in Golgi fragmentation were then used. DNA-PK with NU7441 was ruled out (Farber-Katz, S. E. et al. DNA damage triggers Golgi dispersal via DNA-PK and GOLPH3. Cell 156, 413-427 (2014)). Compounds containing an indirubin core have broad specificity for Cyclin dependent kinases (CDKs) and Src kinases. […] CDK1, CDK2 and CDK5 were ruled out, using (R)-Roscovitine (Rosco).

NOS2 = molecular target: T2, NOS2 (Mus musculus, UniProt P29477); test: In cellulo specificity of NOckout to NO in LPS primed J774A.1 cells; type: cell-based; settings: LPS primed J774A.1 cells, 1400 W 10 μM
T2 construct: J774A.1 cells were treated with 1 μg/mL LPS for 12 h prior to the addition of NOckout; endogenous in cells; host or cells: J774A.1 macrophages primed with LPS
Description: Pharmacological inhibition: Pharmacological inhibition of different enzymes were performed by employing known inhibitors. […] Cells were bathed in inhibitors 1 h prior to the addition of NOckout probes during the specificity experiment performed in J774A.1 cells.
In cellulo specificity of NOckout to NO: In cellulo specificity of the NOckout probe towards NO^− was validated in J774A.1 cells. […] J774A.1 cells were treated with 1 μg/mL LPS for 12 h prior to the addition of NOckout (500 nM in HBSS) either in the presence or in absence of specific inhibitors. LPS addition was employed to induce the expression of NOS2NOX and MPO. […] After 90 minutes of incubation with the NOckout culture media was removed from the cells and three washes were performed using HBSS to remove extracellular NOckout before proceeding to the fluorescence imaging. […]
The in-cell specificity of NOckout can be evaluated by measuring the contribution of the reactive species produced by NOX, MPO and NOS2 to the observed fold change in G/R ratio upon LPS stimulation. […] As NOS2 activity is not pan-endosomal, specificity is given by quantifying the percentage of endosomes that show G/R values higher than the mean G/R value in endosomes of unstimulated, NOS2 inhibited cells, as the latter corresponds to basal endosomal NO levels (FIG. 6c).

TLR-9 and TLR-21 = test: Phagosomal NO in zebrafish microglia with NOckout^zCpG; type: in vivo
From the text: Zebrafish brain was imaged in the optic tectum using an upright Zeiss LSM-710 confocal microscope equipped with water immersion objectives (20×, or 40×). Zebrafish larvae (3-4 dpf were mounted dorsally in a 1.5% low-melting point agar-bed on a confocal imaging dish (3.5 cm glass bottom). E3-containing 0.003% MS-222 was present in the imaging dish though out the imaging section. For NOckout injected samples, images were acquired simultaneously in GFP, DAR, and A647N channels using excitation wavelengths 488 nm, […] from Argon-ion (488 nm), Helium-Neon (543 nm & 632 nm) laser sources respectively. pHrodo was imaged using the same settings as that of DAR.
Image analysis: A MATLAB based program called Findosome was used to calculate the (G/R) values of individual endosomes from the acquired images. […] For each ROI, the program calculates fluorescence intensities both in the normalizing channel (A647, R) as well as in the DAR (G) channel. […] From the results, (G/R) value for individual endosomes can be calculated. Phagosomal (G/R) values from the zebrafish microglia are calculated using Fiji software. […] Fluorescence intensities in A647 and DAR channels were calculated. […] For (G/R) ratio quantification experiments, only those vesicles that are present in both green (G) and red (R) channels were considered. […]

CC(=N)NCc1cccc(CN)c1 [1400 W] was tested, and the “G/B and G/R values of NOckout probes (NOS3 activity)” value (NOS3) was “no effect”, the “S-nitrosylation at the Golgi” value [1] was “no change” and the “Golgi fragmentation by treatment alone” value (T-47D cells) was “none of these treatments fragmented the Golgi”. The “reduction of NOckout signal” value (NOS2) was ~50% and the “reduction of phagosomal G/R versus NOckout^zCpG” value (TLR-9 and TLR-21) was ~50%.
